{"source": "the NIST ThermoML archive (doi:10.1016/j.jct.2015.06.002)", "key": {"[1]": {"conditions": "298.15 K; Liquid; Gas chromatography"}, "[2]": {"test": "Boiling temperature at pressure P", "conditions": "Liquid, Gas chromatography"}}, "note": "± gives the expanded uncertainty stated by the source."}
{"compound": "C/C=C/C=C/CCCCCCCO", "note": "[(E,E)-8,10-dodecadien-1-ol]", "values": [{"measurement": "vapor or sublimation pressure", "setting": "[1]", "value": "8.3e-05 ± 2.5e-05", "unit": "kPa"}, {"measurement": "Boiling temperature at pressure P", "setting": "[2]; 0.267 kPa", "value": "116 ± 20", "unit": "°C"}, {"measurement": "Boiling temperature at pressure P", "setting": "[2]; 101.33 kPa", "value": "276.0 ± 20", "unit": "°C"}]}
